Reference: patent publication US7713994B2 (Wyeth LLC, priority 2005, dated 2010)
Where two headings read alike, the source gives them in different places.

Key:
[1] = system: BT474; assay: Cytotoxicity assay (SRB), BT474; assay type: cell-based; details: BT474 cells, 6 days, SRB, read-out: In Vitro Cellular Activity IC50 BT474
Summary of the method: (§1)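 Plate cells, let them attach overnight, add compound dilutions in RPMI 1640/5% FBS, and incubate 3 days (BT474 6 days). Then fix with TCA, stain with SRB, dissolve the dye in Tris and read at 540 nm.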

[2] = system: LoVo; assay: Cytotoxicity assay (SRB), LoVo; assay type: cell-based; details: LoVo cells, 3 days, SRB, read-out: In Vitro Cellular Activity IC50 LOVO
Summary of the method: as §1

[3] = molecular target: T1, cyclin B/CDK1 enzyme (Homo sapiens, UniProt P06493); assay: CDK1 ELISA kinase assay (phospho-Rb ser 795 detection); assay type: biochemical
T1 construct: purchased New England BioLabs; host or cells: Sf9 insect cells, recombinant baculovirus
T1 sequence (P06493 whole entry): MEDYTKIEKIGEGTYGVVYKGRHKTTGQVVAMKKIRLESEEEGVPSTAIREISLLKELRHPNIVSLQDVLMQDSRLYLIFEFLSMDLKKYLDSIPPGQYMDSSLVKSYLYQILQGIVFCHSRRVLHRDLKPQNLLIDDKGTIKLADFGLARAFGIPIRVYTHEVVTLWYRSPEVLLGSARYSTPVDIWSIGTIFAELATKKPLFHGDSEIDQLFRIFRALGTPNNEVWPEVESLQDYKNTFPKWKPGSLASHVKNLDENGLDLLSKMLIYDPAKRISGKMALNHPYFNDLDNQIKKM
T1 sequence (P14635 whole entry partner): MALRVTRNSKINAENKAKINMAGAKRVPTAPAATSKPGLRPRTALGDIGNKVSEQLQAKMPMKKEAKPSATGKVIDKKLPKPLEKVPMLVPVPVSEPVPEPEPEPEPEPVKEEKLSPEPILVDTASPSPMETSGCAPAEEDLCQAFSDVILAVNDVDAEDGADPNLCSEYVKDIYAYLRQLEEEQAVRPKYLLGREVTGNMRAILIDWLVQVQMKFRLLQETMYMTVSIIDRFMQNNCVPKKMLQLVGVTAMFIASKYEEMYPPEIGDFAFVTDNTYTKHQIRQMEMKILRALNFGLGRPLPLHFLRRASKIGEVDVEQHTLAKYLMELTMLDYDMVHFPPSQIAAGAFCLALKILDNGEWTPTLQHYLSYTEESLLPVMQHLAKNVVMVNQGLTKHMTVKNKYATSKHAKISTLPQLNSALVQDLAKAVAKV
Summary of the method: (§2)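 Partially purified Sf9-expressed cyclin D1/CDK4, cyclin E/CDK2 or cyclin B/CDK1 phosphorylated plate-bound GST-Rb C-terminal fragment with 200 μM ATP at 30° C for 1 h.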

[4] = system: HCT-116; assay: Cytotoxicity assay (SRB), HCT-116; assay type: cell-based; details: HCT116 cells, 3 days, SRB, read-out: In Vitro Cellular Activity IC50 HCT116
Summary of the method: as §1

[5] = molecular target: T2, cyclin E/CDK2 enzyme (Homo sapiens, UniProt P24941); assay: CDK2 ELISA kinase assay (phospho-Rb ser 795 detection); assay type: biochemical
T2 construct: made in house; host or cells: Sf9 insect cells, recombinant baculovirus
Summary of the method: as §2

[6] = molecular target: T3, cyclin D1/cdk 4 enzyme (Homo sapiens, UniProt P11802); assay: CDK4 ELISA kinase assay (phospho-Rb ser 795 detection); assay type: biochemical
T3 construct: made in house; host or cells: Sf9 insect cells, recombinant baculovirus
T3 sequence (P11802 whole entry, species assumed): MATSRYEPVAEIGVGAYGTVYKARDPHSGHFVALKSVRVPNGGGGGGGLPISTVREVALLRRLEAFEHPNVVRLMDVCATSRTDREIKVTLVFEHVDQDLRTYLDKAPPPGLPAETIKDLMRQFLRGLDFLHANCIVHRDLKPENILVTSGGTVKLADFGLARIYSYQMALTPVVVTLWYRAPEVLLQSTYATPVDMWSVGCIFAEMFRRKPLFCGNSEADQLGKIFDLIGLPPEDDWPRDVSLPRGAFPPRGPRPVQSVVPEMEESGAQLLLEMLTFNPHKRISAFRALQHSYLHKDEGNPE
T3 sequence (P24385 whole entry partner, species assumed): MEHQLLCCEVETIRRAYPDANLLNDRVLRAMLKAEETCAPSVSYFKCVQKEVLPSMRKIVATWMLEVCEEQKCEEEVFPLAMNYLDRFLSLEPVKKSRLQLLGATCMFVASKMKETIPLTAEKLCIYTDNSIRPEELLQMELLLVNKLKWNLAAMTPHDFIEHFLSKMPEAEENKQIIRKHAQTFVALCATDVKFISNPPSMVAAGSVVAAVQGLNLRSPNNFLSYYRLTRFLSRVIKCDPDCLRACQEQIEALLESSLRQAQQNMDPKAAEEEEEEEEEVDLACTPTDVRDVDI
Summary of the method: as §2

[7] = system: MCF-7; assay: Cytotoxicity assay (SRB), MCF-7; assay type: cell-based; details: MCF-7 cells, 3 days, SRB, read-out: In Vitro Cellular Activity IC50 MCF-7
Summary of the method: as §1

[8] = In Vitro Enzyme Assay, cyclin B/CDK1, read-out: CDK1 IC50
[9] = In Vitro Enzyme Assay, cyclin E/CDK2, read-out: CDK2 IC50
[10] = In Vitro Enzyme Assay, cyclin D1/cdk 4, read-out: CDK4 IC50

IC50 ([3]; In Vitro Enzyme Assays, read-out: CDK1 IC50) [nM] | IC50 ([5]; In Vitro Enzyme Assays, read-out: CDK2 IC50) [nM] | IC50 ([6]; In Vitro Enzyme Assays, 200 μM ATP, read-out: CDK4 IC50) [nM] | IC50 [3, 8] [nM] | IC50 [5, 9] [nM] | IC50 [6, 10] [nM] | SMILES | IC50 ([1]; Homo sapiens, BT-474, 144 h) [nM] | IC50 ([2]; Homo sapiens, LoVo, 72 h) [nM] | IC50 ([4]; Homo sapiens, HCT-116, 72 h) [nM] | IC50 ([7]; Homo sapiens, MCF7, 72 h) [nM] | IC50 [1] [nM] | IC50 [2] [nM] | IC50 [4] [nM] | IC50 [7] [nM]
> 50000 | > 50000 | 5000 |  |  |  | CN1CCC(N(C)CC2CCN(c3ccc(N/C=C4\C(=O)NC(=O)c5ccc(I)cc54)cc3)CC2)C1 (stereo not shown) [Example 455, (4Z)-6-Iodo-4-({[4-(4-{[methyl(1-methylpyrrolidin-3-yl)amino]methyl}piperidin-1-yl)phenyl]amino}methylene)isoquinoline-1,3(2H,4H)-dione] | 3100 | 3300 | 2400 | 3100 |  |  |  | 
 |  |  | > 50000 | > 50000 | 470 | CCNCC1CCN(c2ccc(N/C=C3\C(=O)NC(=O)c4ccc(I)cc43)cc2)CC1 [Example 456, (4Z)-4-{[(4-{4-[(Ethylamino)methyl]piperidin-1-yl}phenyl)amino]methylene}-6-iodoisoquinoline-1,3(2H,4H)-dione] | 9200 | 8300 | 2700 | 11000 |  |  |  | 
 |  |  | 24200 | 19400 | 190 | CN1CCN(c2ccc(N/C=C3\C(=O)NC(=O)c4ccc(-c5ccoc5)cc43)c(F)n2)CC1 [Example 457, (4Z)-4-({[2-Fluoro-6-(4-methylpiperazin-1-yl)pyridin-3-yl]amino}methylene)-6-(3-furyl)isoquinoline-1,3(2H,4H)-dione] |  |  |  |  | 1600 | 1000 | 960 | 2100
 |  |  | > 50000 | > 50000 | 420 | O=C1NC(=O)c2ccc(I)cc2/C1=C/Nc1ccc(C2CCCN2)cc1 (stereo not shown) [Example 462, 6-Iodo-4-[(4-pyrrolidin-2-yl-phenylamino)-methylene]-4H-isoquinoline-1,3-dione] | 4800 | 3600 | 2600 | 3500 |  |  |  | 
 |  |  | > 50000 | > 50000 | 60 | O=C1NC(=O)c2ccc(-c3ccoc3)cc2/C1=C/Nc1ccc(CN2CCC[C@H]2CO)cc1 [Example 463, 6-Furan-3-yl-4-{[4-(2-hydroxymethyl-pyrrolidin-1-ylmethyl)-phenylamino]-methylene}-4H-isoquinoline-1,3-dione] | 1700 | 2000 | 2300 | 900 |  |  |  | 
 |  |  | > 50000 | > 50000 | 140 | O=C1NC(=O)c2ccc(I)cc2/C1=C/Nc1ccc(C2CCCN2CCO)cc1 (stereo not shown) [Example 464, 4-({4-[1-(2-Hydroxy-ethyl)-pyrrolidin-2-yl]-phenylamino}-methylene)-6-iodo-4H-isoquinoline-1,3-dione] | 6600 | 4600 | 3200 | 2400 |  |  |  | 
 |  |  | > 50000 | 22000 | 180 | CCN1CCCC1c1ccc(N/C=C2\C(=O)NC(=O)c3ccc(I)cc32)cc1 (stereo not shown) [Example 465, 4-{[4-(1-Ethyl-pyrrolidin-2-yl)-phenylamino]-methylene}-6-iodo-4H-isoquinoline-1,3-dione] | 3800 | 5000 | 2900 | 1300 |  |  |  | 
 |  |  | > 50000 | > 50000 | 130 | O=C1NC(=O)c2ccc(-c3ccco3)cc2/C1=C/Nc1ccc(CN2CCC[C@H]2CO)cc1 [Example 466, 6-Furan-2-yl-4-{[4-(2-hydroxymethyl-pyrrolidin-1-ylmethyl)-phenylamino]-methylene}-4H-isoquinoline-1,3-dione] | 1400 | 2100 | 2100 | 1200 |  |  |  | 
 |  |  | > 50000 | > 50000 | 600 | O=C1NC(=O)c2ccc(-c3nccs3)cc2/C1=C/Nc1ccc(CN2CCC[C@H]2CO)cc1 [Example 472, 4-{[4-(2-Hydroxymethyl-pyrrolidin-1-ylmethyl)-phenylamino]-methylene}-6-thiazol-2-yl-4H-isoquinoline-1,3-dione] | 9100 | 8900 | 5000 | 14200 |  |  |  | 
 |  |  | > 50000 | > 50000 | 50 | CCN1CCCC1c1ccc(N/C=C2\C(=O)NC(=O)c3ccc(-c4ccoc4)cc32)cc1 (stereo not shown) [Example 473, 4-{[4-(1-Ethyl-pyrrolidin-2-yl)-phenylamino]-methylene}-6-furan-3-yl-4H-isoquinoline-1,3-dione] | 1500 | 2300 | 2400 | 2000 |  |  |  | 
 |  |  | > 50000 | > 50000 | 700 | CN1CCN(c2ncc(N/C=C3\C(=O)NC(=O)c4ccc(I)cc43)cn2)CC1 [Example 475, (4Z)-6-Iodo-4-({[2-(4-methylpiperazin-1-yl)pyrimidin-5-yl]amino}methylene)isoquinoline-1,3(2H,4H)-dione] | 8100 | 7700 | 3200 | 2200 |  |  |  | 
 |  |  | > 50000 | > 50000 | 16100 | O=C1NC(=O)c2ccc(I)cc2/C1=C/Nc1ccc(CN2CCS(=O)(=O)CC2)cc1 [Example 483, 4-{[4-(1,1-Dioxo-1-thiomorpholin-4-ylmethyl)-phenylamino]-methylene}-6-iodo-4H-isoquinoline-1,3-dione] | > 50000 | > 50000 | 13100 | > 50000 |  |  |  | 
 |  |  | 31000 | > 50000 | 250 | CN1CCN(c2ncc(N/C=C3\C(=O)NC(=O)c4ccc(-c5ccoc5)cc43)cn2)CC1 [Example 484, (4Z)-6-(3-Furyl)-4-({[2-(4-methylpiperazin-1-yl)pyrimidin-5-yl]amino}methylene)isoquinoline-1,3(2H,4H)-dione] | 2490 | 1240 | 1130 | 3230 |  |  |  | 
 |  |  | > 50000 | > 50000 | 60 | CCCOc1ccc(CN/C=C2\C(=O)NC(=O)c3ccc(-c4ccoc4)cc32)cc1O [Example 485, (4Z)-6-(3-Furyl)-4-{[(3-hydroxy-4-propoxybenzyl)amino]methylene}isoquinoline-1,3(2H,4H)-dione] | 1070 | 940 | 1360 | 1420 |  |  |  | 
 |  |  | 47800 | 15100 | 130 | O=C1NC(=O)c2ccc(I)cc2/C1=C/NCc1ccc(-c2ccccc2)c(O)c1 [Example 490, 4-{[(2-Hydroxy-biphenyl-4-ylmethyl)-amino]-methylene}-6-iodo-4H-isoquinoline-1,3-dione] | 260 | 340 | 420 | 880 |  |  |  | 
 |  |  | > 50000 | > 50000 | 50 | O=C1NC(=O)c2ccc(-c3ccoc3)cc2/C1=C/Nc1ccc(CN2CCC(CCO)CC2)cc1 [Example 491, (4Z)-6-(3-Furyl)-4-{[(4-{[4-(2-hydroxyethyl)piperidin-1-yl]methyl}phenyl)amino]methylene}isoquinoline-1,3(2H,4H)-dione] | 1200 | 2700 | 3500 | 1000 |  |  |  | 
 |  |  | > 50000 | > 50000 | 240 | O=Cc1ccc(-c2ccc3c(c2)/C(=C/Nc2ccc(CN4CCCCC4)cc2)C(=O)NC3=O)o1 [Example 492, 5-[(4Z)-1,3-Dioxo-4-({[4-(piperidin-1-ylmethyl)phenyl]amino}methylene)-1,2,3,4-tetrahydroisoquinolin-6-yl]-2-furaldehyde] | 3300 | 3000 | 1000 | 4100 |  |  |  | 
 |  |  | 42500 | 18400 | 30 | O=C1NC(=O)c2ccc(-c3ccoc3)cc2/C1=C/NCc1ccc(-c2ccccc2)c(O)c1 [Example 494, 6-Furan-3-yl-4-{[(2-hydroxy-biphenyl-4-ylmethyl)-amino]-methylene}-4H-isoquinoline-1,3-dione] | 530 | 520 | 580 | 1000 |  |  |  | 
 |  |  | > 50000 | > 50000 | 300 | CCCCc1ccc(CN/C=C2\C(=O)NC(=O)c3ccc(I)cc32)cc1O [Example 495, 4-[(4-Butyl-3-hydroxy-benzylamino)-methylene]-6-iodo-4H-isoquinoline-1,3-dione] | 4500 | 6300 | 4900 | 3300 |  |  |  | 
